# Assay results reported in PMC11672400, “Synthesis, Spectroscopic Characterization, Structural Analysis, and Evaluation of Anti-Tumor, Antimicrobial, and Antibiofilm Activities of Halogenoaminopyrazoles Derivatives” (Antibiotics, 2024).
# Where two headings read alike, the source gives them in different places.
# Assays:
# [1] = system: Escherichia coli ATCC25922; experiment: MIC by serial microdilution in liquid medium; assay type: cell-based; conditions: 24 h, 37 °C; for MIC: Escherichia coli, ATCC25922, read-out: Minimum inhibitory concentration, Escherichia coli ATCC25922
# Experimental: (§1) The minimum inhibitory concentrations (MIC) were determined by the serial microdilution method in a liquid medium (Tryptone Soy Broth), on 96-well plates. Serial binary dilutions of the compound stock solution (10 mg/mL in DMSO) were carried out in 90 µL of culture medium and 10 µL of 10^6 CFU/mL (Colony Forming Units) microbial suspension. Each test included a positive control (wells with culture medium and microbial suspension) and a negative control for medium sterility. After incubation at 37 °C for 24 h the plates were visually examined, and optical density was measured at 620 nm. […] The MIC value (µg/mL) for the chemical compound was determined by the concentration in the final well without bacterial growth. All experiments were performed in triplicate.
# [2] = system: Enterococcus faecalis ATCC29212; experiment: MIC by serial microdilution in liquid medium; assay type: cell-based; conditions: 24 h, 37 °C; for MIC: Enterococcus faecalis, ATCC29212, read-out: Minimum inhibitory concentration, Enterococcus faecalis ATCC29212
# Experimental: as §1
# [3] = system: Staphylococcus aureus ATCC25923; experiment: MIC by serial microdilution in liquid medium; assay type: cell-based; conditions: 24 h, 37 °C; for MIC: Staphylococcus aureus, ATCC25923, read-out: Minimum inhibitory concentration, Staphylococcus aureus ATCC25923
# Experimental: as §1
# [4] = system: Pseudomonas aeruginosa ATCC27853; experiment: MIC by serial microdilution in liquid medium; assay type: cell-based; conditions: 24 h, 37 °C; for MIC: Pseudomonas aeruginosa, ATCC27853, read-out: Minimum inhibitory concentration, Pseudomonas aeruginosa ATCC27853
# Experimental: as §1
# [5] = MTT cell viability / cytotoxicity on normal fibroblasts; assay type: cell-based, mouse; conditions: mouse
# From the text: (§2) Merck chemicals were utilized.
# (§3) Untreated cells were used as control, considered 100% viable cells.
# [6] = system: HEp-2 epithelial tumor cells; experiment: MTT cell viability / anti-tumor activity; conditions: Homo sapiens, read-out: Cell viability on Hep2 cells (%)
# Experimental: The cytotoxicity of the halogenoaminopyrazole derivatives 4a–f and 5a–e was tested on L929 mouse fibroblast cells, and their anti-tumor activity was evaluated on the human carcinoma epithelial cell line HEp-2. The experiments were performed in a concentration range of 3.1–50 μg/mL.
# The MTT test was used, 3-(4,5-dimethylthiazol-2-yl)-2,5-diphenyl tetrazolium bromide), which is reduced to insoluble purple-blue formazan crystals precipitated by living cells. Cell viability assessed using the MTT assay reflects the activity of mitochondrial enzymes in treated cells compared to the control culture of untreated cells.
# To assess the biocompatibility of the substances, a stable mouse fibroblast cell line, NCTC (clone 929), was grown in minimal essential medium (MEM) with 10% fetal bovine serum (FBS) and 2 mM L-glutamine, along with 100 U/mL penicillin, 100 µg/mL streptomycin, and 500 µg/mL neomycin. The concentration of the compounds used was 0.06 g/2 mL DMSO.
# In cytotoxicity experiments, compound solutions were utilized at concentrations of 3.1 μg/mL, 6.25 μg/mL, 12.5 μg/mL, 25 μg/mL, and 50 μg/mL. The NCTC cell suspension was placed into 96-well culture plates with a concentration of 4 × 10^4 cells/mL and incubated at 37 °C for 24 h in a 5% CO2 humidified atmosphere. The compounds under study were placed in sets of three at varying concentrations ranging from 3.1 μg/mL to 50 μg/mL in every well, and the plates were then kept under standard conditions for 48 h. Cell viability was determined through the utilization of the MTT assay. Next, the MTT solution was removed, then isopropanol was added to solubilize the formazan crystals. The colored solution was then measured for absorbance at 570 nm using a Berthold Technologies, LB 940 microplate reader (Bad Wildbad, Germany). The outcomes were determined based on Formula (1) while considering that the recorded optical density is directly related to the number of viable cells in the cell culture being examined [35, 36]. % cell viability = (OD sample/OD control) × 100%(1)
# For each tested compound, a graph representing percentage cell viability versus concentrations (in the range 3.1–50 µg/mL) was obtained. Then, the IC50 value was calculated by using ED50 plus V1.0 software.
# [7] = system: Escherichia coli ATCC25922; experiment: Antibiofilm assay (crystal violet), MBIC; assay type: cell-based; conditions: 37 °C; for minimal effective concentration: Escherichia coli, ATCC25922, 24 h, read-out: Minimum biofilm inhibition concentration (MBIC), Escherichia coli ATCC25922
# Experimental: (§4) Microorganisms were grown in 96-well plates filled with nutrient broth along with test substances, followed by incubation at 37 °C for 24 h. Plates were cleaned and rinsed thrice using SPW solution (sterile physiological water). After that, the attached cells were treated with 110 μL of methanol for 5 min, and then the methanol was removed by turning it upside down. […] Once stained, the solution was removed, and the plates were washed with running tap water. […] The antimicrobial/antibiofilm activity of the compounds was evaluated against two antibiotics, commercial formulations of metronidazole and nitrofurantoin.
# [8] = system: Enterococcus faecalis ATCC29212; experiment: Antibiofilm assay (crystal violet), MBIC; assay type: cell-based; conditions: 37 °C; for minimal effective concentration: Enterococcus faecalis, ATCC29212, 24 h, read-out: Minimum biofilm inhibition concentration (MBIC), Enterococcus faecalis ATCC29212
# Experimental: as §4
# [9] = system: Staphylococcus aureus ATCC25923; experiment: Antibiofilm assay (crystal violet), MBIC; assay type: cell-based; conditions: Staphylococcus aureus, ATCC25923; 24 h, 37 °C; read-out: Minimum biofilm inhibition concentration (MBIC), Staphylococcus aureus ATCC25923
# Experimental: as §4
# [10] = system: Pseudomonas aeruginosa ATCC27853; experiment: Antibiofilm assay (crystal violet), MBIC; assay type: cell-based; conditions: 37 °C; for Minimum biofilm inhibition concentration (MBIC), Pseudomonas aeruginosa ATCC27853: 24 h; for minimal effective concentration: Pseudomonas aeruginosa, ATCC27853, 24 h, read-out: Minimum biofilm inhibition concentration (MBIC), Pseudomonas aeruginosa ATCC27853
# Experimental: as §4
# [11] = system: Escherichia coli ATCC25922; experiment: Qualitative evaluation of antimicrobial activity (inhibition zone, spot on agar); assay type: cell-based; set-up: key: (+) inhibited bacterial growth; (-) did not inhibit bacterial growth; conditions: 0.06 g/2 mL DMSO, 5 µL spot
# Experimental: (§5) For testing the antimicrobial/antibiofilm activity, the concentration of the studied compounds was identical to 0.06 g/2 mL DMSO. 0.5 Standard McFarland suspension was used, which was inoculated onto Mueller Hinton agar plates, (Remel, Lenexa, KS, USA), 5 µL of each compound was spotted and incubated overnight at 37 °C. Antimicrobial activity was observed as zones of inhibition formed around the spot.
# [12] = system: Enterococcus faecalis ATCC29212; experiment: as above; assay type: cell-based; set-up: key: (+) inhibited bacterial growth; (-) did not inhibit bacterial growth; conditions: 0.06 g/2 mL DMSO, 5 µL spot
# Experimental: as §5
# [13] = system: Staphylococcus aureus ATCC25923; experiment: as above; assay type: cell-based; set-up: key: (+) inhibited bacterial growth; (-) did not inhibit bacterial growth; conditions: 0.06 g/2 mL DMSO, 5 µL spot
# Experimental: as §5
# [14] = system: Pseudomonas aeruginosa ATCC27853; experiment: as above; assay type: cell-based; set-up: key: (+) inhibited bacterial growth; (-) did not inhibit bacterial growth; conditions: 0.06 g/2 mL DMSO, 5 µL spot
# Experimental: as §5
# [15] = system: NCTC (clone 929) mouse fibroblast cells; experiment: MTT cell viability / cytotoxicity on normal fibroblasts; assay type: cell-based; conditions: Mus musculus, NCTC clone 929; NCTC normal fibroblasts, MTT, 48 h
# From the text: as §2, §3
# [16] = NCTC clone 929 (L929) mouse fibroblast cells
# [17] = read-out: Cell viability on NCTC cells (%)
SMILES,MIC [1] [µg/mL],MIC [2] [µg/mL],MIC [3] [µg/mL],MIC [4] [µg/mL],"viability at 3.1 µg/mL ([6]; HEp-2, 24 h) [%]","viability at 6.25 µg/mL ([6]; HEp-2, 24 h) [%]","viability at 12.5 µg/mL ([6]; HEp-2, 24 h) [%]","viability at 25 µg/mL ([6]; HEp-2, 24 h) [%]","viability at 50 µg/mL ([6]; HEp-2, 24 h) [%]","viability at 3.1 µg/mL ([6]; HEp-2, 48 h) [%]","viability at 6.25 µg/mL ([6]; HEp-2, 48 h) [%]","viability at 12.5 µg/mL ([6]; HEp-2, 48 h) [%]","viability at 25 µg/mL ([6]; HEp-2, 48 h) [%]","viability at 50 µg/mL ([6]; HEp-2, 48 h) [%]",melting point [°C],minimal effective concentration [7] [µg/mL],minimal effective concentration [8] [µg/mL],minimal effective concentration [9] [µg/mL],"Minimum biofilm inhibition concentration (MBIC), Pseudomonas aeruginosa ATCC27853 [10] [µg/mL]",minimal effective concentration [10] [µg/mL],further results
"Cc1nn(CNc2ccc(I)cc2)c(C)c1[N+](=O)[O-] [4d, N-[(3,5-dimetyl-4-nitro-1H-pyrazol-1-yl)-methyl]-4-iodoaniline]",930 ± 0.1,930 ± 0.53,930 ± 0.55,930 ± 0.02,105 ± 1.93,110 ± 2.64,113 ± 3.48,109 ± 2.75,106 ± 1.63,101 ± 3.72,110 ± 3.49,111 ± 2.8,101.6 ± 0.56,69 ± 0.81,91 to 92,930 ± 0.18,930 ± 0.53,930 ± 0.03,460 ± 0.05,460,"viability at 24 h, 3.1 µg/mL [5, 16]: 99.9 ± 2.31%; viability at 48 h, 3.1 µg/mL [5, 16]: 95.69 ± 0.8%; viability at 24 h, 6.25 µg/mL [5, 16]: 101 ± 2.24%; viability at 48 h, 6.25 µg/mL [5, 16]: 96.26 ± 0.78%; viability at 24 h, 12.5 µg/mL [5, 16]: 103 ± 3.44%; viability at 48 h, 12.5 µg/mL [5, 16]: 92.6 ± 1.4%; viability at 24 h, 25 µg/mL [5, 16]: 102 ± 1.07%; viability at 48 h, 25 µg/mL [5, 16]: 91.5 ± 1.41%; viability at 24 h, 50 µg/mL [5, 16]: 101 ± 2.55%; viability at 48 h, 50 µg/mL [5, 16]: 88.2 ± 2.1%; Qualitative antimicrobial activity, Escherichia coli ATCC25922 [11]: -; Qualitative antimicrobial activity, Enterococcus faecalis ATCC29212 [12]: -; Qualitative antimicrobial activity, Staphylococcus aureus ATCC25923 [13]: -; Qualitative antimicrobial activity, Pseudomonas aeruginosa ATCC27853 [14]: -"
"Cc1nn(CN(Cn2nc(C)c([N+](=O)[O-])c2C)c2ccc(Br)cc2)c(C)c1[N+](=O)[O-] [5c, N,N-bis-[(3,5-dimetyl-4-nitro-1H-pyrazol-1-yl)-methyl]-4-bromoaniline]",3750,3750,3750,3750,112 ± 2.32,114 ± 2.18,117 ± 2.83,113 ± 1.52,102 ± 2.71,96.9 ± 1.38,96.5 ± 1.58,89.2 ± 2.02,65.3 ± 2.09,50.2 ± 2.02,133 to 135,3750,1870,1870 ± 0.15,1870 ± 0.53,1870,"Minimum inhibitory concentration, Escherichia coli ATCC25922 [1]: 3750 ± 0.54 µg/mL; Minimum inhibitory concentration, Enterococcus faecalis ATCC29212 [2]: 3750 ± 0.08 µg/mL; Minimum inhibitory concentration, Staphylococcus aureus ATCC25923 [3]: 3750 ± 0.04 µg/mL; Minimum inhibitory concentration, Pseudomonas aeruginosa ATCC27853 [4]: 3750 ± 0.51 µg/mL; viability at 24 h, 3.1 µg/mL [5, 17]: 105 ± 1.96%; viability at 48 h, 3.1 µg/mL [5, 17]: 96.7 ± 2.96%; viability at 24 h, 6.25 µg/mL [5, 17]: 106 ± 2.3%; viability at 48 h, 6.25 µg/mL [5, 17]: 101 ± 3.63%; viability at 24 h, 12.5 µg/mL [5, 17]: 106 ± 3.74%; viability at 48 h, 12.5 µg/mL [5, 17]: 97.4 ± 1.99%; viability at 24 h, 25 µg/mL [5, 17]: 105 ± 1.88%; viability at 48 h, 25 µg/mL [5, 17]: 96.6 ± 2.02%; viability at 24 h, 50 µg/mL [5, 17]: 84 ± 2.12%; viability at 48 h, 50 µg/mL [5, 17]: 68 ± 1.61%; Minimum biofilm inhibition concentration (MBIC), Escherichia coli ATCC25922 ([7]; 24 h): 3750 ± 0.48 µg/mL; Minimum biofilm inhibition concentration (MBIC), Enterococcus faecalis ATCC29212 ([8]; 24 h): 1870 ± 0.06 µg/mL; Qualitative antimicrobial activity, Escherichia coli ATCC25922 [11]: -; Qualitative antimicrobial activity, Enterococcus faecalis ATCC29212 [12]: -; Qualitative antimicrobial activity, Staphylococcus aureus ATCC25923 [13]: -; Qualitative antimicrobial activity, Pseudomonas aeruginosa ATCC27853 [14]: -"
"C[C@@H]1CC[C@@]2(OC1)O[C@H]1C[C@H]3[C@@H]4CC=C5C[C@@H](O[C@@H]6O[C@H](CO)[C@@H](O[C@@H]7O[C@@H](C)[C@H](O)[C@@H](O)[C@H]7O)[C@H](O)[C@H]6O[C@@H]6O[C@@H](C)[C@H](O)[C@@H](O)[C@H]6O)CC[C@]5(C)[C@H]4CC[C@]3(C)[C@H]1[C@@H]2C [dioscin, reference compound]",,,,,97.09 ± 0.43,76.7 ± 2.01,58.92 ± 0.3,13.9 ± 0.18,11.5 ± 0.14,95.99 ± 0.53,62 ± 1.78,38 ± 2.09,7.49 ± 1.32,7.27 ± 1.14,,,,,,,"viability at 24 h, 3.1 µg/mL [5, 17]: 94.3 ± 2.49%; viability at 48 h, 3.1 µg/mL [5, 17]: 94.2 ± 1.66%; viability at 24 h, 6.25 µg/mL [5, 17]: 93 ± 3.24%; viability at 48 h, 6.25 µg/mL [5, 17]: 72.6 ± 1.67%; viability at 24 h, 12.5 µg/mL [5, 17]: 38.7 ± 2.55%; viability at 48 h, 12.5 µg/mL [5, 17]: 37 ± 2.55%; viability at 24 h, 25 µg/mL [5, 17]: 14.9 ± 2.63%; viability at 48 h, 25 µg/mL [5, 17]: 8.55 ± 1.26%; viability at 24 h, 50 µg/mL [5, 17]: 13.7 ± 2.06%; viability at 48 h, 50 µg/mL [5, 17]: 7.14 ± 1.28%; IC50 [15]: 15.8 ± 2.19 µg/mL"
